One experiment deals with thrombus. Description: Arteriovenous Shunt Model. Type of experiment: in vivo, dogs. The following applies: mean ± SEM; for Arterial Conditions T/B ratio / Venous Conditions T/B ratio: T/B = thrombus/background; for Arterial Conditions Uptake (% id/g) / Venous Conditions Uptake (% id/g): extracorporeal A-V shunt, 1 hr shunt period. The protocol: Arteriovenous Shunt Model: Adult mongrel dogs of either sex (9-13 kg) were anesthetized with pentobarbital sodium (35 mg/kg, i.v.) and ventilated with room air via an endotracheal tube (12 strokes/min,25 ml/kg). For arterial pressure determination, the left carotid artery was cannulated with a saline-filled polyethylene catheter (PE-240) and connected to a Statham pressure transducer (P23ID; Oxnard, Calif.). Mean arterial blood pressure was determined via damping the pulsatile pressure signal. Heart rate was monitored using a cardiotachometer (Biotach, Grass Quincy, Ma.) triggered from a lead II electrocardiogram generated by limb leads. A jugular vein was cannulated (PE-240) for drug administration. The both femoral arteries and femoral veins were cannulated with silicon treated (Sigmacote, Sigma Chemical Co. St Louis, Mo.), saline filled polyethylene tubing (PE-200) and connected with a 5 cm section of silicon treated tubing (PE-240) to form an extracorporeal arterio-venous shunts (A-V). Shunt patency was monitored using a doppler flow system (model VF-1, Crystal Biotech Inc, Hopkinton, Ma.) and flow probe (2-2.3 mm, Titronics Med. Inst., Iowa City, Iowa) placed proximal to the locus of the shunt. All parameters were monitored continuously on a polygraph recorder (model 7D Grass) at a paper speed of […] or 25 mm/sec.
On completion of a 15 min post surgical stabilization period, an occlusive thrombus was formed by the introduction of a thrombogenic surface (4-0 braided silk thread, 5 cm in length, Ethicon Inc., Somerville, N.J.) into the shunt one shunt with the other serving as a control. Two consecutive 1 hr shunt periods were employed with the test agent administered as an infusion over 5 min beginning 5 min before insertion of the thrombogenic surface. At the end of each 1 hr shunt period the silk was carefully removed and weighed and the % incorporation determined via well counting. Thrombus weight was calculated by subtracting the weight of the silk prior to placement from the total weight of the silk on removal from the shunt. Arterial blood was withdrawn prior to the first shunt and every 30 min thereafter for determination of blood clearance, whole blood collagen-induced platelet aggregation, thrombin-induced platelet degranulation (platelet ATP release), prothrombin time and platelet count. Template bleeding time was also performed at 30 min intervals.

Another experiment relates to venous thrombus. The experiment in a line: Canine Deep Vein Thrombosis Model. To be noted: 1 mCi/Kg, i.v., given at reflow; jugular vein thrombi; 15, 60 and 120 min post-administration. It counts as in vivo, dogs. The method, then:
Canine Deep Vein Thrombosis Model: This model incorporates the triad of events (hypercoagulatible state, period of stasis, low shear environment) essential for the formation of a venous fibrin-rich actively growing thrombus. The procedure was as follows: Adult mongrel dogs of either sex (9-13 kg) were anesthetized with pentobarbital sodium (35 mg/kg,i.v.) and ventilated with room air via an endotracheal tube (12 strokes/min, 25 ml/kg). For arterial pressure determination, the right femoral artery was cannulated with a saline-filled polyethylene catheter (PE-240) and connected to a Statham pressure transducer (P23ID; Oxnard, Calif.). Mean arterial blood pressure was determined via damping the pulsatile pressure signal. Heart rate was monitored using a cardiotachometer (Biotach, Grass Quincy, Ma.) triggered from a lead II electrocardiogram generated by limb leads. The right femoral vein was cannulated (PE-240) for drug administration. A 5 cm segment of both jugular veins was isolated, freed from fascia and circumscribed with silk suture. A microthermister probe was placed on the vessel which serves as an indirect measure of venous flow. […] The agent was infused during the first 5 min of reflow and the rate of incorporation monitored using gamma scintigraphy.

As for “Cyclo-((^125 I)D-Tyr-NMeArg-Gly-Asp-Mamb) [Example 8]”, in the experiment on thrombus, the “Arterial Conditions T/B ratio” value is on record as 173 ± 22, the “Arterial Conditions Uptake (% id/g)” value was 1.81 ± 0.18 % id/g, the “Venous Conditions T/B ratio” value is 19 ± 9 and the “Venous Conditions Uptake (% id/g)” value worked out at 0.25 ± 0.15 % id/g.

Take “Cyclo-(D-Val-NMeArg-Gly-Asp-Mamb([^99m TcO(MA-MAMA)]-5-Aca)) [Example 32]”: in the experiment on thrombus, the “Arterial Conditions T/B ratio” value was 102, the “Arterial Conditions Uptake (% id/g)” value stood at 7.4 % id/g, the “Venous Conditions T/B ratio” value is recorded as 0 and the “Venous Conditions Uptake (% id/g)” value is reported as 0 % id/g.

Consider “Cyclo-(D-Val-NMeArg-Gly-Asp-Mamb([^99m TcO(MeMAG2 gaba)]^- -5-Aca)) [Example 23]”, for which, in the experiment on thrombus, the “Arterial Conditions T/B ratio” value stood at 195 ± 39, the “Arterial Conditions Uptake (% id/g)” value turned out to be 5.41 ± 0.70 % id/g, the “Venous Conditions T/B ratio” value was found to be 7 ± 0.4 and the “Venous Conditions Uptake (% id/g)” value is recorded as 0.21 ± 0.05 % id/g.

Take “Cyclo-(D-Val-NMeArg-Gly-Asp-Mamb([^99m TcO(mapt)]^- -5-Aca)) [Example 19]”: in the experiment on thrombus, the “Arterial Conditions T/B ratio” value is on record as 142 ± 24, the “Arterial Conditions Uptake (% id/g)” value is given as 5.75 ± 1.28 % id/g, the “Venous Conditions T/B ratio” value stood at 13 ± 4 and the “Venous Conditions Uptake (% id/g)” value came to 0.58 ± 0.22 % id/g. The “uptake in venous thrombus (typical images, gamma scintigraphy)” value in the experiment on venous thrombus is recorded as “uptake in a rapidly growing venous thrombus”.

As to “Cyclo-([([^99m TcO(mapt)]^- -5-Aca)D-Lysσ-NMeArg-Gly-Asp-Mamb) [Example 21]”, in the experiment with thrombus, the “Arterial Conditions T/B ratio” value is 113 ± 1, the “Arterial Conditions Uptake (% id/g)” value was determined as 1.6 ± 0.12 % id/g, the “Venous Conditions T/B ratio” value came out at 4.0 ± 2 and the “Venous Conditions Uptake (% id/g)” value worked out at 0.06 ± 0.03 % id/g.

For “Cyclo-([[^99m TcO(MeMAG2 gaba)]^- -D-Lys]-NMeArg-Gly-Asp-Mamb) [Example 22]”, in the experiment with thrombus, the “Arterial Conditions T/B ratio” value is reported as 158 ± 5, the “Arterial Conditions Uptake (% id/g)” value turned out to be 1.28 ± 0.44 % id/g, the “Venous Conditions T/B ratio” value is on record as 7 ± 4 and the “Venous Conditions Uptake (% id/g)” value came to 0.045 ± 0.02 % id/g.

For the substance “Cyclo-([[^99m TcO(mapt)]^- -D-Lys]-NMeArg-Gly-Asp-Mamb) [Example 18]”, in the experiment on thrombus, the “Arterial Conditions T/B ratio” value came to 147 ± 44, the “Arterial Conditions Uptake (% id/g)” value turned out to be 0.47 ± 0.12 % id/g, the “Venous Conditions T/B ratio” value was 13 ± 3 and the “Venous Conditions Uptake (% id/g)” value is 0.04 ± .01 % id/g.

As for “Cyclo-([^111 In-DTPA-D-Lys]-NMeArg-Gly-Asp-Mamb) [Example 16]”, in the experiment on thrombus, the “Arterial Conditions T/B ratio” value was 128 ± 24, the “Arterial Conditions Uptake (% id/g)” value was determined as 0.95 ± 0.29 % id/g, the “Venous Conditions T/B ratio” value turned out to be 14 and the “Venous Conditions Uptake (% id/g)” value worked out at 0.08 % id/g.

Regarding “[(^125 I)N-3-(4-hydroxyphenyl)propionyl]-Cyclo-(D-Lys-NMeArg-Gly-Asp-Mamb) [Example 9]”, in the experiment on thrombus, the “Arterial Conditions T/B ratio” value is reported as 44 ± 4, the “Arterial Conditions Uptake (% id/g)” value is on record as 2.60 ± .005 % id/g, the “Venous Conditions T/B ratio” value was found to be 8 ± 3 and the “Venous Conditions Uptake (% id/g)” value was 0.45 ± 0.11 % id/g.

For “^99m Tc((EDDA)-Cyclo(D-Val-NMeArg-Gly-Asp-Mamb(hydrazino-nicotinyl-5-Aca)) [Example 13]”, in the experiment on thrombus, the “Arterial Conditions T/B ratio” value was 163 ± 14, the “Arterial Conditions Uptake (% id/g)” value is given as 8.50 ± 0.20 % id/g, the “Venous Conditions T/B ratio” value came out at 33 ± 27 and the “Venous Conditions Uptake (% id/g)” value was determined as 1.64 ± 1.32 % id/g.

Turning to “^99m Tc(tricine)2 -Cyclo(D-Val-NMeArg-Gly-Asp-Mamb(hydrazino-nicotinyl-5-Aca)) [Example 12]”, in the experiment with thrombus, the “Arterial Conditions T/B ratio” value amounted to 111 ± 6, the “Arterial Conditions Uptake (% id/g)” value came out at 6.15 ± 0.66 % id/g, the “Venous Conditions T/B ratio” value is given as 7.0 ± 2 and the “Venous Conditions Uptake (% id/g)” value stood at 0.46 ± 0.19 % id/g. Besides, the “uptake in venous thrombus (typical images, gamma scintigraphy)” value with venous thrombus was “uptake in a rapidly growing venous thrombus”.

Regarding “^99m TcO(MAMA)-Cyclo-(D-Val-NMeArg-Gly-Asp-Mamb(5-Aca)) [Example 10]”, in the experiment with thrombus, the “Arterial Conditions T/B ratio” value is 221 ± 16, the “Arterial Conditions Uptake (% id/g)” value was 5.00 ± 0.51 % id/g, the “Venous Conditions T/B ratio” value came out at 7 ± 0.6 and the “Venous Conditions Uptake (% id/g)” value came out at 0.16 ± 0.02 % id/g.

The values above are taken from US5879657A, “Radiolabeled platelet GPIIb/IIIa receptor antagonists as imaging agents for the diagnosis of thromboembolic disorders” (The Dupont Merck Pharmaceutical Company, priority 1994, dated 1999).
